Measured values published in patent US10059715B2, “Acid addition salt of ibrutinib” (ratiopharm GmbH, priority 2014, dated 2018).
Converted amounts (≈) assume the structure as drawn. Where a name gives a salt, the structure may show the parent alone. Values belong to the molecule of their own block, whether it stands above or below them.

Experiments:
[1] = Comparison of solubilities at pH values relevant for the gastrointestinal tract
physchem = conditions: 37 °C, thermodynamic from solid
[2] = at about pH 8; cited from earlier work
[3] = 20 mMol NaAc solution, pH 4.5, aqueous buffer

- solubility ([1]; pH 1.2 (0.1M HCl), 15 min, listed as crystalline ibrutinib hydrochloride, hydrochloride): 7.37 mg/mL
- solubility ([1]; pH 1.2 (0.1M HCl), 1 h, hydrochloride): 7.72 mg/mL
- solubility ([1]; pH 1.2 (0.1M HCl), 24 h, hydrochloride): 7.38 mg/mL
- solubility ([1]; pH 4.5 (20 mMol NaAc), 15 min): 0.01 mg/mL
- solubility ([1]; pH 4.5 (20 mMol NaAc), 24 h, 37° C., hydrochloride): 0.46 mg/mL
- solubility ([1]; pH 6.8 (50 mMol KH2PO4), 15 min): 0.01 mg/mL
- solubility ([1]; pH 6.8 (50 mMol KH2PO4), 1 h, 37° C., hydrochloride): 0.05 mg/mL
- solubility ([1]; pH 6.8 (50 mMol KH2PO4), 24 h, 37° C., hydrochloride): 0.41 mg/mL
- solubility at 1 h (physchem; [3]): 20 µg/mL
Structure (SMILES): C=CC(=O)N1CCC[C@@H](n2nc(-c3ccc(Oc4ccccc4)cc3)c3c(N)ncnc32)C1 [HCl, ibrutinib hydrochloride]

- solubility ([1]; pH 1.2 (0.1M HCl), 15 min, listed as ibrutinib base (form A)): 2.07 mg/mL (≈ 4700 µM)
- solubility ([1]; pH 1.2 (0.1M HCl), 1 h): 2.64 mg/mL (≈ 5990 µM)
- solubility ([1]; pH 1.2 (0.1M HCl), 24 h): 2.64 mg/mL (≈ 5990 µM)
- solubility ([1]; pH 4.5 (20 mMol NaAc), 1 h, 37° C.): 0.01 mg/mL (≈ 22.7 µM)
- solubility ([1]; pH 4.5 (20 mMol NaAc), 24 h, 37° C.): 0.01 mg/mL (≈ 22.7 µM)
- solubility (in words) ([1]; pH 4.5, time not stated): substantially insoluble
- solubility ([1]; pH 6.8 (50 mMol KH2PO4), 1 h, 37° C.): 0.01 mg/mL (≈ 22.7 µM)
- solubility ([1]; pH 6.8 (50 mMol KH2PO4), 24 h, 37° C.): 0.01 mg/mL (≈ 22.7 µM)
- solubility (in words) ([1]; pH 6.8, time not stated): substantially insoluble
- solubility at 15 min (physchem; [3]): 10 µg/mL (≈ 22.7 µM)
- solubility at 15 min (physchem; 50 mMol KH2PO4 solution, pH 6.8, aqueous buffer): 10 µg/mL (≈ 22.7 µM)
Structure (SMILES): C=CC(=O)N1CCC[C@@H](n2nc(-c3ccc(Oc4ccccc4)cc3)c3c(N)ncnc32)C1 [base, 1-[(3R)-3[4-Amino-3-(4-phenoxyphenyl)-1H-pyrazolo[3,4-d]pyrimidin-1-yl]piperidin-1-yl]prop-2-en-1one]
- observed aqueous solubility [2]: about 0.013 mg/ml
